Key:
Experiment in all cases: relative viability (nuclei count vs DMSO), 5 days (fraction); higher = more cells survive
Doxorubicin + Dasatinib = compound: COc1cccc2c1C(=O)c1c(O)c3c(c(O)c1C2=O)C[C@@](O)(C(=O)CO)C[C@@H]3O[C@H]1C[C@H](N)[C@H](O)[C@H](C)O1 [Doxorubicin] + Cc1nc(Nc2ncc(C(=O)Nc3c(C)cccc3Cl)s2)cc(N2CCN(CCO)CC2)n1 [Dasatinib] (partner 0.075 µM)
Procedure, shortened: (§1)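 Lung cancer cell lines were pin-tool dosed in 1536-well plates on the day after seeding, with either a lone drug or a fixed anchor-drug dose plus five library-drug doses (not always all listed) in √10 steps. Nuclei were counted on 4× images after 5 days. Relative viability is the ratio of treated-well to vehicle-well nuclei counts, with each value a median of duplicate plates.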

[1] = compound: COc1cccc2c1C(=O)c1c(O)c3c(c(O)c1C2=O)C[C@@](O)(C(=O)CO)C[C@@H]3O[C@H]1C[C@H](N)[C@H](O)[C@H](C)O1 [Doxorubicin] + CC(=O)c1c(C)c2cnc(Nc3ccc(N4CCNCC4)cn3)nc2n(C2CCCC2)c1=O [Palbociclib] (partner 0.5 µM)
Procedure, shortened: as §1

BAY61-3606 + Linsitinib = compound: COC1=C(C=C(C=C1)C2=CC3=NC=CN3C(=N2)NC4=C(C=CC=N4)C(=O)N)OC [BAY61-3606] + C[C@]1(O)C[C@@H](c2nc(-c3ccc4ccc(-c5ccccc5)nc4c3)c3c(N)nccn32)C1 [Linsitinib] (partner 1 µM)
Procedure, shortened: as §1

BAY61-3606 + Bortezomib = compound: COC1=C(C=C(C=C1)C2=CC3=NC=CN3C(=N2)NC4=C(C=CC=N4)C(=O)N)OC [BAY61-3606] + CC(C)C[C@H](NC(=O)[C@H](Cc1ccccc1)NC(=O)c1cnccn1)B(O)O [Bortezomib] (partner 0.002 µM)
Procedure, shortened: as §1

Row | Cell Line | relative viability (Doxorubicin + Dasatinib; first compound 0.001 µM) | relative viability (Doxorubicin + Dasatinib; first compound 0.003162 µM) | relative viability (Doxorubicin + Dasatinib; first compound 0.01 µM) | relative viability (Doxorubicin + Dasatinib; first compound 0.03162 µM) | relative viability (Doxorubicin + Dasatinib; first compound 0.1 µM) | relative viability ([1]; first compound 0.001 µM) | relative viability ([1]; first compound 0.003162 µM) | relative viability ([1]; first compound 0.01 µM) | relative viability ([1]; first compound 0.03162 µM) | relative viability ([1]; first compound 0.1 µM) | relative viability (BAY61-3606 + Linsitinib; first compound 0.02 µM) | relative viability (BAY61-3606 + Linsitinib; first compound 0.06325 µM) | relative viability (BAY61-3606 + Linsitinib; first compound 0.2 µM) | relative viability (BAY61-3606 + Linsitinib; first compound 0.6325 µM) | relative viability (BAY61-3606 + Linsitinib; first compound 2 µM) | relative viability (BAY61-3606 + Bortezomib; first compound 0.02 µM) | relative viability (BAY61-3606 + Bortezomib; first compound 0.06325 µM) | relative viability (BAY61-3606 + Bortezomib; first compound 0.2 µM) | relative viability (BAY61-3606 + Bortezomib; first compound 0.6325 µM) | relative viability (BAY61-3606 + Bortezomib; first compound 2 µM)
1 | HCC-78 | 0.412 | 0.465 | 0.366 | 0.349 | 0.363 | 0.46 | 0.526 | 0.449 | 0.488 | 0.453 | 0.742 | 0.456 | 0.598 | 0.535 | 0.459 | 0.452 | 0.535 | 0.526 | 0.479 | 0.427
2 | HCC-366 | – | 0.757 | 0.614 | 0.238 | 0.212 | 0.352 | 0.456 | 0.361 | 0.275 | 0.361 | 0.831 | 0.613 | 0.689 | 0.694 | 0.366 | 1.04 | 1.16 | 1.1 | 0.998 | 0.964
3 | HCC-827 | 0.3 | 0.335 | 0.29 | 0.304 | 0.365 | 0.465 | 0.458 | 0.484 | 0.465 | 0.593 | 0.971 | 0.959 | 0.973 | 1.05 | 0.966 | 1.03 | 1.07 | 1.01 | 1.02 | 1.1
4 | HOP-62 | 0.68 | 0.737 | 0.601 | 0.628 | 0.552 | 0.421 | 0.444 | 0.494 | 0.434 | 0.486 | 1.11 | – | 0.961 | 1.11 | 0.713 | 0.869 | – | 1.16 | 0.443 | 0.723
5 | IA-LM | – | – | – | – | – | – | – | – | – | – | 0.52 | 0.573 | 0.559 | 0.662 | 0.354 | 0.912 | – | 0.917 | 0.797 | 0.68
6 | LC-2-ad | 0.691 | 0.602 | 0.489 | 0.209 | 0.161 | 0.475 | 0.476 | 0.496 | 0.517 | 0.495 | 0.971 | 0.922 | 0.897 | 0.827 | 0.562 | 1.02 | 1.1 | 0.979 | 1.08 | 0.907
7 | LK-2 | 0.326 | 0.284 | 0.221 | 0.286 | 0.265 | 0.704 | 0.773 | 0.637 | 0.487 | 0.515 | 0.487 | 0.529 | 0.691 | 0.834 | 0.412 | – | – | – | – | –
8 | NCI-H358 | 0.175 | 0.161 | 0.159 | 0.0904 | 0.0827 | 0.129 | 0.141 | 0.118 | 0.0838 | 0.1 | 0.769 | 0.64 | 0.699 | 0.673 | 0.299 | – | – | – | – | –
9 | NCI-H522 | 0.724 | 1.04 | 0.873 | 0.776 | 1 | 0.986 | 1.19 | 1.08 | 0.89 | 1.04 | – | – | – | – | – | – | – | – | – | –
10 | NCI-H596 | 0.663 | 0.621 | 0.681 | 0.506 | 0.579 | – | – | – | – | – | 1.16 | 0.962 | 1 | 1.02 | 0.954 | 0.99 | 1.08 | 1.17 | 1.48 | 1.1
11 | NCI-H1299 | – | – | – | – | – | – | – | – | – | – | 0.977 | 1.03 | 0.994 | 1 | 0.89 | 1.08 | 1.03 | 1.02 | 1.04 | 0.991
12 | NCI-H1395 | 0.415 | 0.422 | 0.389 | 0.398 | 0.376 | 0.579 | 0.618 | 0.663 | 0.671 | 0.575 | 1.39 | 0.989 | 1.1 | 1.1 | 0.888 | – | – | – | – | –
13 | NCI-H1563 | 0.481 | 0.505 | 0.45 | 0.462 | 0.483 | – | – | – | – | – | 1.37 | 1.42 | 1.2 | 1.12 | 1.03 | 0.84 | 0.803 | 0.948 | 0.988 | 0.631
14 | NCI-H1623 | 0.502 | 0.564 | 0.55 | 0.548 | 0.491 | – | – | – | – | – | – | – | – | – | – | – | – | – | – | –
15 | NCI-H1648 | – | – | – | – | – | 0.283 | 0.294 | 0.286 | 0.245 | 0.258 | – | – | – | – | – | – | – | – | – | –
16 | NCI-H1650 | 0.37 | 0.321 | 0.301 | 0.149 | 0.11 | 0.237 | 0.317 | 0.282 | 0.173 | 0.145 | – | – | – | – | – | 0.24 | 0.201 | 0.183 | 0.356 | 0.201
17 | NCI-H1703 | – | – | – | – | – | – | – | – | – | – | 0.596 | 0.389 | 0.842 | 0.808 | 0.341 | 0.486 | 0.321 | 0.291 | 0.368 | 0.234
18 | NCI-H1793 | – | 0.511 | 0.374 | 0.33 | 0.413 | – | 0.303 | 0.304 | 0.258 | 0.324 | 0.797 | 0.892 | 1 | 1.27 | 0.89 | – | – | – | – | –
19 | NCI-H1944 | 0.18 | 0.206 | 0.216 | 0.165 | 0.174 | 0.374 | 0.293 | 0.337 | 0.272 | 0.353 | 1.31 | 1.17 | 1.1 | 1.13 | 1.27 | – | – | – | – | –
20 | NCI-H2170 | 0.625 | 0.687 | 0.455 | 0.436 | 0.553 | 0.409 | 0.389 | 0.386 | 0.313 | 0.447 | – | – | – | – | – | – | – | – | – | –
21 | NCI-H2342 | 0.308 | 0.317 | 0.323 | 0.298 | 0.326 | 0.547 | 0.557 | 0.548 | 0.496 | 0.496 | – | – | – | – | – | – | – | – | – | –
22 | SK-MES-1 | 0.458 | 0.396 | 0.325 | 0.141 | 0.128 | 0.326 | 0.319 | 0.321 | 0.281 | 0.23 | 1 | 1.13 | 1.09 | 1.09 | 0.989 | – | – | – | – | –
23 | SW 900 | 0.544 | 0.66 | 0.461 | 0.36 | 0.406 | – | 0.604 | 0.543 | 0.452 | 0.519 | – | – | – | – | – | – | – | – | – | –

Source: the supplement of paper PMC10307832
